These results are taken from patent US8952204B2, “Sulfonium salt, method for producing the same, and photoacid generator” (DSP Gokyo Food & Chemical Co., Ltd., priority 2012, dated 2015).

Data set [1] in a line: Measurement of ultraviolet-visible absorption spectrum (molecular extinction coefficient at 365 nm). It is filed as physicochemical. The note with it: 1×10^−4 mol/L acetonitrile solution; 50 to 2000 evaluated as desirable. As for the experimental part: (Measurement of Ultraviolet-Visible Absorption Spectrum)
A 1×10^−4 mol/L acetonitrile solution of each test compound was prepared, and the molecular extinction coefficient at 365 nm in the ultraviolet-visible absorption spectrum was measured using an ultraviolet-visible spectrophotometer (UV-2400PC, manufactured by SHIMADZU CORPORATION). […] Considering that light should be transmitted to a deep portion in a thick film, compounds with a molecular extinction coefficient at 365 nm (i-line) of 50 to 2000 were evaluated as a compound having desirable properties.

Data set [2] is described as follows: Solubility in PGMEA (amount of PGMEA necessary for dissolving 100 mg test compound). In kind it is physicochemical. The note with it: 20±5° C., after 30 minutes, 16 mL or less evaluated as desirable. As for the experimental part: To the sulfonium salt compound to be measured (test compound; 100 mg each) was added PGMEA, and a strong shaking for 30 seconds was repeated at 20±5° C. every 5 minutes. In this way, the amount of PGMEA necessary for dissolving the test compound after 30 minutes was measured. Here, “dissolving” means to reach the state where no insoluble matter can be observed by visual inspection, specifically, means that the resultant solution is clear, or a mixture in an arbitrary ratio becomes transparent.
In Table 1 below, the compounds that require PGMEA in an amount of 16 mL or less were evaluated as having desirable properties as a current target compound.

For `CC1(C)[C@@H]2CC[C@@]1(CS(=O)(=O)[O-])C(=O)C2.c1ccc([S+](c2ccccc2)c2ccccc2)cc1` [Comparative Example Compound 1, triphenylsulfonium (1S,4R)-7,7-dimethyl-2-oxobicyclo[2.2.1]heptane-1-yl methanesulfonate], in data set [1], the “Molecular Extinction Coefficient (365 nm)” value is 0. In data set [2], the “PGMEA (mL): amount of PGMEA necessary for dissolving test compound” value was more than 160 mL.

As to `CC1(C)[C@@H]2CC[C@@]1(CS(=O)(=O)[O-])C(=O)C2.CCCCOc1ccc2ccc(OCCCC)c([S+](CCCC)CCCC)c2c1` [Example Compound 1, 1-(2,7-di-n-butoxynaphthyl)di-n-butyl sulfonium (1S,4R)-7,7-dimethyl-2-oxobicyclo[2.2.1]heptane-1-yl methanesulfonate], the “Molecular Extinction Coefficient (365 nm)” value in data set [1] is listed as 640. In data set [2], the “PGMEA (mL): amount of PGMEA necessary for dissolving test compound” value stood at 11 mL.
